Laboratory results taken from ChEMBL document CHEMBL4507324 (2021).

Experiments:
Details in all cases: Compound concentration 100.0 nM
[1] = biological target: Serine/threonine-protein kinase TBK1 (Homo sapiens) (UniProt Q9UHD2)
[2] = biological target: Phosphatidylinositol 4,5-bisphosphate 3-kinase catalytic subunit delta isoform (Homo sapiens) (UniProt O00329)
[3] = biological target: Serine/threonine-protein kinase B-raf (Homo sapiens, UniProt P15056)
[4] = test system: Phosphatidylinositol 4,5-bisphosphate 3-kinase catalytic subunit alpha isoform (Homo sapiens), P42336 [H1047L]
[5] = biological target: Phosphatidylinositol 4-phosphate 5-kinase type-1 alpha (Homo sapiens) (UniProt Q99755)
[6] = test system: Receptor-type tyrosine-protein kinase FLT3 (Homo sapiens), P36888 [UNDEFINED MUTATION]
[7] = biological target: Dual specificity mitogen-activated protein kinase kinase 4 (Homo sapiens) (UniProt P45985)
Chain of Dual specificity mitogen-activated protein kinase kinase 4 (Homo sapiens) (P45985 whole entry): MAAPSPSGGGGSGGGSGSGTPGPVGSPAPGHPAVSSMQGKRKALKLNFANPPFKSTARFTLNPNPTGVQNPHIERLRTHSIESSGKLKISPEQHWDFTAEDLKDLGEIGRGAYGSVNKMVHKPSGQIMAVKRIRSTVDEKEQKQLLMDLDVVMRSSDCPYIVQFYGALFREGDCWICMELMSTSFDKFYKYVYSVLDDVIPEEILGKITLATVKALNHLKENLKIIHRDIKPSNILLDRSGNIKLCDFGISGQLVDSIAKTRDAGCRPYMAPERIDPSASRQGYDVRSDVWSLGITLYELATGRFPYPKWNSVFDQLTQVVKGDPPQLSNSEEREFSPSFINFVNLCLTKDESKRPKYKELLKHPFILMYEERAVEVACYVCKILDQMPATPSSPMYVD

[8] = biological target: Phosphatidylinositol 3-kinase catalytic subunit type 3 (Homo sapiens) (UniProt Q8NEB9)
[9] = biological target: Ephrin type-A receptor 1 (Homo sapiens) (UniProt P21709)
[10] = biological target: Fibroblast growth factor receptor 1 (Homo sapiens) (UniProt P11362)
[11] = biological target: Serine/threonine-protein kinase NLK (Homo sapiens) (UniProt Q9UBE8)
[12] = biological target: Serine/threonine-protein kinase 32B (Homo sapiens) (UniProt Q9NY57)
[13] = biological target: Serine/threonine-protein kinase LATS1 (Homo sapiens) (UniProt O95835)
Chain of Serine/threonine-protein kinase LATS1 (Homo sapiens) (O95835 whole entry): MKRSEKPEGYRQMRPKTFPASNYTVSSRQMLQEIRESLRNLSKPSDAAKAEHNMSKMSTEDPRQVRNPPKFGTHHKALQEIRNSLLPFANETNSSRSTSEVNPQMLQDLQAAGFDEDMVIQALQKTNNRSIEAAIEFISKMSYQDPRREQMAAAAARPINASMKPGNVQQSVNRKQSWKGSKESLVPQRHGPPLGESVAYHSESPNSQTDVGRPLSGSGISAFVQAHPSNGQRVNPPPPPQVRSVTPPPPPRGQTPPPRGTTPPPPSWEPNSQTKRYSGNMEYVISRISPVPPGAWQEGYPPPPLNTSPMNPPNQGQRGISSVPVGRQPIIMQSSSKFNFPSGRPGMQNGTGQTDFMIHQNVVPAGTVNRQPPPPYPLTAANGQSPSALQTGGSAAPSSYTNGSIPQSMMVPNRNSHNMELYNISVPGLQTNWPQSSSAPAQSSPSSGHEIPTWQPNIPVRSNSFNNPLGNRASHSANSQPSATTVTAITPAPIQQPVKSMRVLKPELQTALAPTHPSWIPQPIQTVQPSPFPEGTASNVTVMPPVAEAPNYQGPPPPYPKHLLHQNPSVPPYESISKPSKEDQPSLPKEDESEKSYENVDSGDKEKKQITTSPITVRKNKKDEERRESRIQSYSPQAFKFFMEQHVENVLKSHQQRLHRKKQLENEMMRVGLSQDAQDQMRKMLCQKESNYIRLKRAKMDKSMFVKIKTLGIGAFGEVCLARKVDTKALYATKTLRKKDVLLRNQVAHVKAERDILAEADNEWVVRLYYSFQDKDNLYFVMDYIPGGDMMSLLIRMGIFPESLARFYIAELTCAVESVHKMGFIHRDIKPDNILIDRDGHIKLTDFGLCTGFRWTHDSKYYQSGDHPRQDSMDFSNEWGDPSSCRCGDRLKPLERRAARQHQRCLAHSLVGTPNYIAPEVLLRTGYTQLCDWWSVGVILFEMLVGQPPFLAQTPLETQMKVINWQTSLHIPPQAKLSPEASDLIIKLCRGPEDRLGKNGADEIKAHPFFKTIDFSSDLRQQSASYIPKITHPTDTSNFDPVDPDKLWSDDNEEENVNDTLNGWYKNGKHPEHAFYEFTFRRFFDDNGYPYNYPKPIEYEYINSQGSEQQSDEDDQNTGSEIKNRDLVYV

[14] = biological target: Uncharacterized serine/threonine-protein kinase SBK3 (Homo sapiens) (UniProt P0C264)
[15] = biological target: Proto-oncogene tyrosine-protein kinase receptor Ret (Homo sapiens) (UniProt P07949)
[16] = biological target: Mitogen-activated protein kinase kinase kinase kinase 5 (Homo sapiens) (UniProt Q9Y4K4)
Chain of Mitogen-activated protein kinase kinase kinase kinase 5 (Homo sapiens) (Q9Y4K4 whole entry, looked up): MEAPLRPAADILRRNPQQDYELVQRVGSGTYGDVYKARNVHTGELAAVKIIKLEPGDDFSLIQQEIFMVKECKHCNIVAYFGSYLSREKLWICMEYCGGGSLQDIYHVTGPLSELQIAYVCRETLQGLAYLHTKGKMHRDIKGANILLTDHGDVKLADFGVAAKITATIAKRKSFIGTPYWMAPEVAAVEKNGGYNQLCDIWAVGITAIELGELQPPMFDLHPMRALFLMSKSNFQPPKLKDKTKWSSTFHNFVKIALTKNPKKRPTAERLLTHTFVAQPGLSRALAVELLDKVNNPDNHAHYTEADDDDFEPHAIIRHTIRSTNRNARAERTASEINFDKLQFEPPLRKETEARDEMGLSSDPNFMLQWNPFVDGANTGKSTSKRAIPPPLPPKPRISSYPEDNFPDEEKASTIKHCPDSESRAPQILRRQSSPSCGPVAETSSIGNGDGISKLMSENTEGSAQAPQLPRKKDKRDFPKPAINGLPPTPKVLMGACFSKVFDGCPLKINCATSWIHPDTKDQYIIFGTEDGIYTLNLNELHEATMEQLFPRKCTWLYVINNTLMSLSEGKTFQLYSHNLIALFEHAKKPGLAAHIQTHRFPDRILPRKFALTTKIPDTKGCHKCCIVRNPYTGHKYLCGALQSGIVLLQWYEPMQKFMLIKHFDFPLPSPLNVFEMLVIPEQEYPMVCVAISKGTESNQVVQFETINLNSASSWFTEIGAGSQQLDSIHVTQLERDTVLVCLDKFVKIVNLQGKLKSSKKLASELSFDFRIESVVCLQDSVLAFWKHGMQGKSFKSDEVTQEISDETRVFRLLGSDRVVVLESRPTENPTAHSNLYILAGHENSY

[17] = biological target: Serine/threonine-protein kinase DCLK3 (Homo sapiens) (UniProt Q9C098)
[18] = biological target: Serine/threonine-protein kinase MARK2 (Homo sapiens) (UniProt Q7KZI7)
[19] = biological target: Tyrosine-protein kinase SYK (Homo sapiens) (UniProt P43405)
[20] = biological target: Protein kinase C eta type (Homo sapiens) (UniProt P24723)
[21] = biological target: Serine/threonine-protein kinase PAK 6 (Homo sapiens) (UniProt Q9NQU5)
[22] = biological target: Cyclin-dependent kinase-like 5 (Homo sapiens) (UniProt O76039)
[23] = biological target: Ribosomal protein S6 kinase alpha-3 (Homo sapiens) (UniProt P51812)
[24] = biological target: Hepatocyte growth factor receptor (Homo sapiens) (UniProt P08581)
[25] = biological target: Serine/threonine-protein kinase LATS2 (Homo sapiens) (UniProt Q9NRM7)
[26] = biological target: Mitogen-activated protein kinase 6 (Homo sapiens) (UniProt Q16659)
Chain of Mitogen-activated protein kinase 6 (Homo sapiens) (Q16659 whole entry): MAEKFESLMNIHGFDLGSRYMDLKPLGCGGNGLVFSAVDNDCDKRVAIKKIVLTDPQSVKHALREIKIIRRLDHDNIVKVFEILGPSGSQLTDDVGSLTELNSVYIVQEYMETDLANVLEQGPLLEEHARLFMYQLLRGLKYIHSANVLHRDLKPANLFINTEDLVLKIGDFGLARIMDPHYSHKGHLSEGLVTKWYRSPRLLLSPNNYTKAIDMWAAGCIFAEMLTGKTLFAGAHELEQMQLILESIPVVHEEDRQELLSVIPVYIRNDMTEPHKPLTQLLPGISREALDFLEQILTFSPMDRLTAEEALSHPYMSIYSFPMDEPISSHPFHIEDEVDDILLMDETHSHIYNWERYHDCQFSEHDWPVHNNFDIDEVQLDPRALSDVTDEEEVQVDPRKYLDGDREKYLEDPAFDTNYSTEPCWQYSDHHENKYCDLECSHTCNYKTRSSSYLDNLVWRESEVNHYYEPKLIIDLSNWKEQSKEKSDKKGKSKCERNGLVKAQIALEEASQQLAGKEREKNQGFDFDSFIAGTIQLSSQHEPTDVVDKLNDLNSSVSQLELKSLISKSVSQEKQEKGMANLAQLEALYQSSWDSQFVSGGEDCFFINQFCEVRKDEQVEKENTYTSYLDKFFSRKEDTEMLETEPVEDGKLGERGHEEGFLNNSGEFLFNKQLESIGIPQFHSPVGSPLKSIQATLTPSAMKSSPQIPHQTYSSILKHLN

[27] = test system: Tyrosine-protein kinase ABL1 (Homo sapiens), P00519 [F317I]
[28] = biological target: Tyrosine-protein kinase ITK/TSK (Homo sapiens) (UniProt Q08881)
[29] = biological target: Mitogen-activated protein kinase kinase kinase kinase 1 (Homo sapiens) (UniProt Q92918)
[30] = biological target: Serine/threonine-protein kinase TAO3 (Homo sapiens) (UniProt Q9H2K8)
[31] = biological target: Inhibitor of nuclear factor kappa-B kinase subunit epsilon (Homo sapiens) (UniProt Q14164)
[32] = biological target: Serine/threonine-protein kinase 17B (Homo sapiens) (UniProt O94768)
[33] = test system: Fibroblast growth factor receptor 3 (Homo sapiens), P22607 [G697C]
[34] = biological target: Ribosomal protein S6 kinase alpha-1 (Homo sapiens) (UniProt Q15418)
[35] = biological target: Serine/threonine-protein kinase 32C (Homo sapiens) (UniProt Q86UX6)
[36] = biological target: Serine/threonine-protein kinase PLK4 (Homo sapiens) (UniProt O00444)
[37] = biological target: Tyrosine-protein kinase Mer (Homo sapiens) (UniProt Q12866)
[38] = biological target: Tyrosine-protein kinase Srms (Homo sapiens) (UniProt Q9H3Y6)
[39] = biological target: Serine/threonine-protein kinase MRCK beta (Homo sapiens) (UniProt Q9Y5S2)
[40] = biological target: Serine/threonine-protein kinase VRK2 (Homo sapiens) (UniProt Q86Y07)
[41] = biological target: Homeodomain-interacting protein kinase 2 (Homo sapiens) (UniProt Q9H2X6)
Chain of Homeodomain-interacting protein kinase 2 (Homo sapiens) (Q9H2X6 whole entry, looked up): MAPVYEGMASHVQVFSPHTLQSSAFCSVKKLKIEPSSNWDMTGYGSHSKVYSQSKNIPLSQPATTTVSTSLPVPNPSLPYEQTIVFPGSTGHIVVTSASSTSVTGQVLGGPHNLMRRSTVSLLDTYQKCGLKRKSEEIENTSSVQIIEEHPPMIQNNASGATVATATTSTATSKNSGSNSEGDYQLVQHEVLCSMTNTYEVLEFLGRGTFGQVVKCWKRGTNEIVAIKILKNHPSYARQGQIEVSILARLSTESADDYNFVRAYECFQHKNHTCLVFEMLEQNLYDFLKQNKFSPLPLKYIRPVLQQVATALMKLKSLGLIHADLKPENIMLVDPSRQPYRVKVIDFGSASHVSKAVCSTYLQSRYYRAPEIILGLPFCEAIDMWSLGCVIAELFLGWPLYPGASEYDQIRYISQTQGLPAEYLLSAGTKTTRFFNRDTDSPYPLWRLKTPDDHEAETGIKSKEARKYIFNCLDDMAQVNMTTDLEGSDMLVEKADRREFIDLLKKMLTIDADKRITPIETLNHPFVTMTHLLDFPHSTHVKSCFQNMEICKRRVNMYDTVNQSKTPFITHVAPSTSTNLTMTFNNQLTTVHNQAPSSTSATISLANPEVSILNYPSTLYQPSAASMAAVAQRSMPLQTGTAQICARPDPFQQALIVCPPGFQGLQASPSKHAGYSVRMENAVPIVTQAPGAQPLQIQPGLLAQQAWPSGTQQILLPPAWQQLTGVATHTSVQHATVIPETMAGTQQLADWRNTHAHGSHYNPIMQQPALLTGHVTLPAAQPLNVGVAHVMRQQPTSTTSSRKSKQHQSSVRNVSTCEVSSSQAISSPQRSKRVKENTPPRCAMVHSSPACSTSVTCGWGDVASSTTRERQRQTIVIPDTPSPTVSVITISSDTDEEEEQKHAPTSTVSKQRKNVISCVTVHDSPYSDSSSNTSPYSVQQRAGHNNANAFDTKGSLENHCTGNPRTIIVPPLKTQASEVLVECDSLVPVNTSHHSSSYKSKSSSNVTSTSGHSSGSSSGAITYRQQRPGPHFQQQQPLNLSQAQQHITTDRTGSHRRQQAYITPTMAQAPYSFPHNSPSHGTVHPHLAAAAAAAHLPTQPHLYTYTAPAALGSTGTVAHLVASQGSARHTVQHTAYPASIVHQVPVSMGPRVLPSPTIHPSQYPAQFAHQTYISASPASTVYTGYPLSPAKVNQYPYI

[42] = biological target: Cyclin-dependent kinase 14 (Homo sapiens) (UniProt O94921)
Chain of Cyclin-dependent kinase 14 (Homo sapiens) (O94921 whole entry): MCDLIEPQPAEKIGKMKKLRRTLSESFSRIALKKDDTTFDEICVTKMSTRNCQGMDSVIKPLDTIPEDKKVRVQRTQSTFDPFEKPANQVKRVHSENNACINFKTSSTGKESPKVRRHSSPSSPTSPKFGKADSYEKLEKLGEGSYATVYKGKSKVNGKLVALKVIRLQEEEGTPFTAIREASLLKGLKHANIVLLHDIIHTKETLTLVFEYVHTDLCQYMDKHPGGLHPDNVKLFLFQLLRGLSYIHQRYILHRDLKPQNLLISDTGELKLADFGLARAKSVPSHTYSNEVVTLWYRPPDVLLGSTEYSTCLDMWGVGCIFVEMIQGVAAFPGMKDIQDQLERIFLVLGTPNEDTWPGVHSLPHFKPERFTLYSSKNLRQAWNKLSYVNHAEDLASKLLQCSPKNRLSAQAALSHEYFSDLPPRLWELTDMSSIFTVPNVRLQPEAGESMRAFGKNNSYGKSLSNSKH

[43] = biological target: Serine/threonine-protein kinase 10 (Homo sapiens) (UniProt O94804)
[44] = test system: Epidermal growth factor receptor (Homo sapiens), P00533 [G719S]
[45] = biological target: Focal adhesion kinase 1 (Homo sapiens) (UniProt Q05397)

For CS(=O)(=O)N1CCCC(NC(=O)[C@H](CCC2CCCCC2)NC(=O)c2ccc(CNc3ncnc4c3nnn4-c3ccccc3)cc2)C1 (stereo not given in full) [SR-301], the residual activity [1] was 88%, the residual activity [2] was 91% and the residual activity [3] was 81%. The residual activity [4] was 76%, the residual activity [5] was 100% and the residual activity [6] was 100%. For the same compound, the residual activity [7] was 100%, the residual activity [8] was 100% and the residual activity [9] was 95%. It also gave a residual activity [10] of 91%, a residual activity [11] of 100% and a residual activity [12] of 65%. For the same compound, the residual activity [13] was 100%, the residual activity [14] was 100% and the residual activity [15] was 87%. For the same compound, the residual activity [16] was 76%, the residual activity [17] was 87% and the residual activity [18] was 100%. It also gave a residual activity [19] of 88%, a residual activity [20] of 79% and a residual activity [21] of 100%. For the same compound, the residual activity [22] was 100%, the residual activity [23] was 100% and the residual activity [24] was 68%. The residual activity [25] was 100%, the residual activity [26] was 94% and the residual activity [27] was 88%. For the same compound, the residual activity [28] was 100%, the residual activity [29] was 100% and the residual activity [30] was 100%. For the same compound, the residual activity [31] was 73%, the residual activity [32] was 100% and the residual activity [33] was 83%. For the same compound, the residual activity [34] was 100%, the residual activity [35] was 100% and the residual activity [36] was 82%. It also gave a residual activity [37] of 91%, a residual activity [38] of 98% and a residual activity [39] of 90%. The residual activity [40] was 91%, the residual activity [41] was 100% and the residual activity [42] was 100%. For the same compound, the residual activity [43] was 100%, the residual activity [44] was 72% and the residual activity [45] was 100%.

CS(=O)(=O)N1CCCC(NC(=O)[C@H](CCC2CCCCC2)NC(=O)c2ccc(CNC(=O)c3cnc4ccccn34)cc2)C1 (stereo not given in full) [SR-302] was tested, and the residual activity [1] was 75%, the residual activity [2] was 67% and the residual activity [3] was 47%. It also gave a residual activity [4] of 100%, a residual activity [5] of 89% and a residual activity [6] of 86%. It also gave a residual activity [7] of 100%, a residual activity [8] of 100% and a residual activity [9] of 93%. The residual activity [10] was 100%, the residual activity [11] was 100% and the residual activity [12] was 93%. It also gave a residual activity [13] of 98%, a residual activity [14] of 66% and a residual activity [15] of 85%. It also gave a residual activity [16] of 100%, a residual activity [17] of 97% and a residual activity [18] of 100%. It also gave a residual activity [19] of 93%, a residual activity [20] of 95% and a residual activity [21] of 100%. It also gave a residual activity [22] of 100%, a residual activity [23] of 100% and a residual activity [24] of 62%. It also gave a residual activity [25] of 76%, a residual activity [26] of 96% and a residual activity [27] of 80%. The residual activity [28] was 90%, the residual activity [29] was 95% and the residual activity [30] was 83%. For the same compound, the residual activity [31] was 100%, the residual activity [32] was 83% and the residual activity [33] was 86%. The residual activity [34] was 92%, the residual activity [35] was 85% and the residual activity [36] was 100%. For the same compound, the residual activity [37] was 94%, the residual activity [38] was 71% and the residual activity [39] was 100%. It also gave a residual activity [40] of 76%, a residual activity [41] of 100% and a residual activity [42] of 100%. For the same compound, the residual activity [43] was 100%, the residual activity [44] was 100% and the residual activity [45] was 92%.
